Assay type in all cases: functional, Homo sapiens
Experiment [1] relates to K562. In words: Compound at 1 uM was tested in vitro to inhibit proliferation of K562 leukemia cell line.
The subject of experiment [2] is K562. In words: Compound at 10 uM was tested in vitro to inhibit proliferation of K562 leukemia cell line.
Experiment [3] has as its system HL-60. In words: Compound at 10 uM was tested in vitro to inhibit proliferation of HL-60 leukemia cell line.
For experiment [4], the system named is HL-60. In words: Compound at 1 uM was tested in vitro to inhibit proliferation of HL-60 leukemia cell line.
For experiment [5], the system named is K562. Put plainly: Compound at 100 uM was tested in vitro to inhibit proliferation of K562 leukemia cell line.
Experiment [6] concerns HL-60. Put plainly: Compound at 100 uM was tested in vitro to inhibit proliferation of HL-60 leukemia cell line.

Take `CCCCCCCCCCOCCOCCOCCOCCCCC(O)CCCCCCCC1=C[C@H](C)OC1=O` (stereo partly specified): the IG in experiment [1] came to 22%; in experiment [2] it was 25%; in experiment [3] it was 65%; in experiment [4], 21%; in experiment [5], 55%; in experiment [6] it was 100%.

Turning to `CCCCCCCCCCCC[C@@H](O)[C@H]1CCC([C@H](O)CCCCC(=O)CCCCCCCC2=C[C@H](C)OC2=O)O1` (stereo partly specified), the IG in experiment [1] came to 2%; in experiment [2], 16%; in experiment [3], 29%; in experiment [4], 0%; in experiment [5], 53%; in experiment [6], 68%.

With `CCCCCCCCCCCC[C@@H](O)[C@H]1CCC([C@H](O)CCCCC(O)CCCCCCCC2=C[C@H](C)OC2=O)O1` (mixture of isomers), the IG in experiment [1] amounted to 0%; in experiment [2] it was 2%; in experiment [3], 56%; in experiment [4], 5%; in experiment [5], 10%; in experiment [6], 63%.

As for `CCCCCCCCCCCOCCOCCOCCCCC(O)CCCCCCCC1=C[C@H](C)OC1=O` (stereo partly specified), the IG in experiment [1] worked out at 0%; in experiment [2], 18%; in experiment [3], 50%; in experiment [4], 0%; in experiment [5], 31%; in experiment [6] it was 100%.

As to `CCCCCCCCCCCC[C@@H](O)[C@H]1CC[C@H]([C@H](O)CCCCCCCCCCCCC2=C[C@H](C)OC2=O)O1` [REL-SOLAMIN], the IG in experiment [1] was found to be 29%; in experiment [2], 39%; in experiment [3] it was 8%; in experiment [4] it was 0%; in experiment [5] it was 59%; in experiment [6] it was 24%.

Regarding `CCCCCCCCCC[C@@H](O)[C@@H]1CC[C@@H]([C@@H]2CC[C@@H]([C@H](O)CCCCCCCCCC(O)CC3=CC(C)OC3=O)O2)O1` (stereo partly specified) [BULLATACIN], the IG is listed as 27% in experiment [1]; 39% in experiment [2]; 7% in experiment [3]; 0% in experiment [4]; 53% in experiment [5]; 73% in experiment [6].

The record behind these values is ChEMBL document CHEMBL1133104, “Polyether mimics of naturally occurring cytotoxic annonaceous acetogenins” (2000).
